# Read-outs that look alike come from different tables or passages of the source.
# How the values were obtained:
# Botrytis cinerea [1] = assay: In vitro growth on cervinomycin-amended growth media; assay type: cell-based
# Fusarium graminearum = assay type: cell-based
# Phytophthora capsici = assay: In vitro growth on cervinomycin-amended growth media; assay type: cell-based
# Zymoseptoria tritici [2] = assay: as above; assay type: cell-based
# Ustilago maydis = assay: as above; assay type: cell-based
# Rhynchosporium secalis = assay: as above; assay type: cell-based
# Cladosporium carpophilum = assay: as above; assay type: cell-based
# Cochliobolus miyabeanus = assay: as above; assay type: cell-based
# Magnaporthe oryzae = assay type: in vivo
# Puccinia triticina = assay: Host plant efficacy assay (wheat); assay type: in vivo
# Zymoseptoria tritici [3] = assay: Host plant efficacy assay (wheat); assay type: in vivo
# Pyrenophora teres = assay: Host plant efficacy assay (barley); assay type: in vivo
# Phakopsora pachyrhizi = assay: Host plant efficacy assay (soybean); assay type: in vivo
# Phytophthora infestans = assay type: in vivo
# [4] = system: Pseudoperonospora cubensis; assay: Host plant efficacy assay (cucumber); assay type: in vivo
# Sclerotinia sclerotiorum = assay: Host plant efficacy assay (common bean); assay type: in vivo
# Podosphaera xanthii = assay: Host plant efficacy assay (cucumber); assay type: in vivo
# Alternaria solani = assay: Host plant efficacy assay (tomato); assay type: in vivo
# [5] = system: Pseudoperonospora cubensis; assay: Field and greenhouse trials (cucumber, squash); assay type: in vivo; conditions: P. cubensis
# [6] = system: Pseudoperonospora cubensis; assay: Foliar application, inoculated plants, disease severity; conditions: for Disease severity P. cubensis Oct. 20, 2020: carrier control severity 70; for Disease severity P. cubensis Oct. 27, 2020: carrier control severity 79; for Disease severity P. cubensis Jul. 28, 2020: carrier control severity 67
# Procedure: (§1) Biological efficacy assays utilizing cervinomycins were conducted on Pseudoperonospora cubensis and Botrytis cinerea. […] Once plants had dried they were inoculated with the pathogen, then were stored in a controlled climate chamber under high humidity for 4-6 days. At the end of the experiment disease severity was determined based on the percentage of plant tissue that was visually symptomatic.
# Botrytis cinerea [7] = assay: as above; conditions: for Disease severity B. cinerea: carrier control severity 63.3; for percent control B. cinerea: vs carrier control
# Procedure: as §1
# [8] = 500 ppm A2, untreated severity 34
# [9] = 1000 ppm A2, untreated severity 34
# [10] = 1500 ppm A2, untreated severity 34
# [11] = 1 ppm foliar, vs carrier control
# [12] = 3 ppm foliar, vs carrier control
# [13] = 6 ppm foliar, vs carrier control
# [14] = 12 ppm foliar, vs carrier control
# [15] = 25 ppm foliar, vs carrier control
# [16] = 30 ppm foliar, vs carrier control
# [17] = 50 ppm foliar, vs carrier control
compound,measurement,setting,value
"COc1cc2oc3c(c(=O)c2cc1OC)C(=O)c1c(ccc2cc4c(c(O)c12)C(=O)N1CCOC1(C)C4)C3=O (centres unmarked) [Cervinomycin A2, cervinomycin A2]",% Control Botrytis cinerea,Botrytis cinerea [1]; 0.004 ppm in growth media,3%
same,% Control Botrytis cinerea,Botrytis cinerea [1]; 0.016 ppm in growth media,2%
same,% Control Botrytis cinerea,Botrytis cinerea [1]; 0.063 ppm in growth media,70%
same,% Control Botrytis cinerea,Botrytis cinerea [1]; 0.25 ppm in growth media,100%
same,% Control Botrytis cinerea,Botrytis cinerea [1]; 1 ppm in growth media,100%
same,% Control Fusarium graminearum,Fusarium graminearum; 0.004 ppm in growth media,8%
same,% Control Fusarium graminearum,Fusarium graminearum; 0.016 ppm in growth media,4%
same,% Control Fusarium graminearum,Fusarium graminearum; 0.063 ppm in growth media,9%
same,% Control Fusarium graminearum,Fusarium graminearum; 0.25 ppm in growth media,0%
same,% Control Fusarium graminearum,Fusarium graminearum; 1 ppm in growth media,14%
same,% Control Phytophthora capsici,Phytophthora capsici; 0.004 ppm in growth media,4%
same,% Control Phytophthora capsici,Phytophthora capsici; 0.016 ppm in growth media,75%
same,% Control Phytophthora capsici,Phytophthora capsici; 0.063 ppm in growth media,90%
same,% Control Phytophthora capsici,Phytophthora capsici; 0.25 ppm in growth media,99%
same,% Control Phytophthora capsici,Phytophthora capsici; 1 ppm in growth media,100%
same,% Control Zymoseptoria tritici,Zymoseptoria tritici [2]; 0.004 ppm in growth media,1%
same,% Control Zymoseptoria tritici,Zymoseptoria tritici [2]; 0.016 ppm in growth media,2%
same,% Control Zymoseptoria tritici,Zymoseptoria tritici [2]; 0.063 ppm in growth media,6%
same,% Control Zymoseptoria tritici,Zymoseptoria tritici [2]; 0.25 ppm in growth media,62%
same,% Control Zymoseptoria tritici,Zymoseptoria tritici [2]; 1 ppm in growth media,100%
same,% Control Ustilago maydis,Ustilago maydis; 0.004 ppm in growth media,6%
same,% Control Ustilago maydis,Ustilago maydis; 0.016 ppm in growth media,12%
same,% Control Ustilago maydis,Ustilago maydis; 0.063 ppm in growth media,90%
same,% Control Ustilago maydis,Ustilago maydis; 0.25 ppm in growth media,100%
same,% Control Ustilago maydis,Ustilago maydis; 1 ppm in growth media,100%
same,% Control Rhynchosporium secalis,Rhynchosporium secalis; 0.004 ppm in growth media,21%
same,% Control Rhynchosporium secalis,Rhynchosporium secalis; 0.016 ppm in growth media,71%
same,% Control Rhynchosporium secalis,Rhynchosporium secalis; 0.063 ppm in growth media,98%
same,% Control Rhynchosporium secalis,Rhynchosporium secalis; 0.25 ppm in growth media,99%
same,% Control Rhynchosporium secalis,Rhynchosporium secalis; 1 ppm in growth media,100%
same,% Control Cladosporium carpophilum,Cladosporium carpophilum; 0.004 ppm in growth media,0%
same,% Control Cladosporium carpophilum,Cladosporium carpophilum; 0.016 ppm in growth media,0%
same,% Control Cladosporium carpophilum,Cladosporium carpophilum; 0.063 ppm in growth media,46%
same,% Control Cladosporium carpophilum,Cladosporium carpophilum; 0.25 ppm in growth media,99%
same,% Control Cladosporium carpophilum,Cladosporium carpophilum; 1 ppm in growth media,99%
same,% Control Cochliobolus miyabeanus,Cochliobolus miyabeanus; 0.004 ppm in growth media,0%
same,% Control Cochliobolus miyabeanus,Cochliobolus miyabeanus; 0.016 ppm in growth media,20%
same,% Control Cochliobolus miyabeanus,Cochliobolus miyabeanus; 0.063 ppm in growth media,49%
same,% Control Cochliobolus miyabeanus,Cochliobolus miyabeanus; 0.25 ppm in growth media,73%
same,% Control Cochliobolus miyabeanus,Cochliobolus miyabeanus; 1 ppm in growth media,87%
same,% control Magnaporthe oryzae Rice 1DBI,Magnaporthe oryzae; 11.3 ppm,0 (0 (about 0%))
same,% control Magnaporthe oryzae Rice 1DBI,Magnaporthe oryzae; 45 ppm,0 (0 (about 0%))
same,% control Magnaporthe oryzae Rice 1DBI,Magnaporthe oryzae; 180 ppm,0 (0 (about 0%))
same,% control Puccinia triticina Wheat 6DBI,Puccinia triticina; 11.3 ppm,0 (0 (about 0%))
same,% control Puccinia triticina Wheat 6DBI,Puccinia triticina; 45 ppm,0 (0 (about 0%))
same,% control Puccinia triticina Wheat 6DBI,Puccinia triticina; 180 ppm,0 (0 (about 0%))
same,% control Zymoseptoria tritici Wheat 3DAI,Zymoseptoria tritici [3]; 11.3 ppm,0 (0 (about 0%))
same,% control Zymoseptoria tritici Wheat 4DBI,Zymoseptoria tritici [3]; 11.3 ppm,0 (0 (about 0%))
same,% control Zymoseptoria tritici Wheat 3DAI,Zymoseptoria tritici [3]; 45 ppm,0 (0 (about 0%))
same,% control Zymoseptoria tritici Wheat 4DBI,Zymoseptoria tritici [3]; 45 ppm,0 (0 (about 0%))
same,% control Zymoseptoria tritici Wheat 3DAI,Zymoseptoria tritici [3]; 180 ppm,0 (0 (about 0%))
same,% control Zymoseptoria tritici Wheat 4DBI,Zymoseptoria tritici [3]; 180 ppm,0 (0 (about 0%))
same,% control Pyrenophora teres Barley 1DBI,Pyrenophora teres; 11.3 ppm,0 (0 (about 0%))
same,% control Pyrenophora teres Barley 1DBI,Pyrenophora teres; 45 ppm,0 (0 (about 0%))
same,% control Pyrenophora teres Barley 1DBI,Pyrenophora teres; 180 ppm,0 (0 (about 0%))
same,% control Phakopsora pachyrhizi Soybean 3DAI,Phakopsora pachyrhizi; 11.3 ppm,0 (0 (about 0%))
same,% control Phakopsora pachyrhizi Soybean 4DBI,Phakopsora pachyrhizi; 11.3 ppm,0 (0 (about 0%))
same,% control Phakopsora pachyrhizi Soybean 3DAI,Phakopsora pachyrhizi; 45 ppm,0 (0 (about 0%))
same,% control Phakopsora pachyrhizi Soybean 4DBI,Phakopsora pachyrhizi; 45 ppm,0 (0 (about 0%))
same,% control Phakopsora pachyrhizi Soybean 3DAI,Phakopsora pachyrhizi; 180 ppm,0 (0 (about 0%))
same,% control Phakopsora pachyrhizi Soybean 4DBI,Phakopsora pachyrhizi; 180 ppm,2 (2 (about 50%))
same,% control Phytophthora infestans Tomato 1DBI,Phytophthora infestans; 11.3 ppm,0 (0 (about 0%))
same,% control Phytophthora infestans Tomato 1DBI,Phytophthora infestans; 45 ppm,0 (0 (about 0%))
same,% control Phytophthora infestans Tomato 1DBI,Phytophthora infestans; 180 ppm,3 (3 (about 70%))
same,% control Pseudoperonospora cubensis Cucumber 1DBI,[4]; 11.3 ppm,0 (0 (about 0%))
same,% control Pseudoperonospora cubensis Cucumber 1DBI,[4]; 45 ppm,0 (0 (about 0%))
same,% control Pseudoperonospora cubensis Cucumber 1DBI,[4]; 180 ppm,3 (3 (about 70%))
same,% control Sclerotinia sclerotiorum Common bean 1DBI,Sclerotinia sclerotiorum; 11.3 ppm,0 (0 (about 0%))
same,% control Sclerotinia sclerotiorum Common bean 1DBI,Sclerotinia sclerotiorum; 45 ppm,0 (0 (about 0%))
same,% control Sclerotinia sclerotiorum Common bean 1DBI,Sclerotinia sclerotiorum; 180 ppm,0 (0 (about 0%))
same,% control Podosphaera xanthii Cucumber 1DBI,Podosphaera xanthii; 11.3 ppm,0 (0 (about 0%))
same,% control Podosphaera xanthii Cucumber 1DBI,Podosphaera xanthii; 45 ppm,0 (0 (about 0%))
same,% control Podosphaera xanthii Cucumber 1DBI,Podosphaera xanthii; 180 ppm,0 (0 (about 0%))
same,% control Alternaria solani Tomato 1DBI,Alternaria solani; 11.3 ppm,0 (0 (about 0%))
same,% control Alternaria solani Tomato 1DBI,Alternaria solani; 45 ppm,0 (0 (about 0%))
same,% control Alternaria solani Tomato 1DBI,Alternaria solani; 180 ppm,0 (0 (about 0%))
same,% Control,[5]; [8],27%
same,Disease Severity,[5]; [8],25%
same,% Control,[5]; [9],22%
same,Disease Severity,[5]; [9],26%
same,% Control,[5]; [10],44%
same,Disease Severity,[5]; [10],19%
same,"Disease severity P. cubensis Oct. 20, 2020",[6]; 1 ppm foliar,52%
same,"Disease severity P. cubensis Oct. 27, 2020",[6]; 1 ppm foliar,7%
same,"percent control P. cubensis Oct. 20, 2020",[6]; [11],(26%)
same,"percent control P. cubensis Oct. 27, 2020",[6]; [11],91%
same,"Disease severity P. cubensis Oct. 20, 2020",[6]; 3 ppm foliar,27%
same,"Disease severity P. cubensis Oct. 27, 2020",[6]; 3 ppm foliar,7%
same,"percent control P. cubensis Oct. 20, 2020",[6]; [12],(61%)
same,"percent control P. cubensis Oct. 27, 2020",[6]; [12],91%
same,"Disease severity P. cubensis Oct. 20, 2020",[6]; 6 ppm foliar,16%
same,"Disease severity P. cubensis Oct. 27, 2020",[6]; 6 ppm foliar,2%
same,"percent control P. cubensis Oct. 20, 2020",[6]; [13],(77%)
same,"percent control P. cubensis Oct. 27, 2020",[6]; [13],98%
same,"Disease severity P. cubensis Oct. 20, 2020",[6]; 12 ppm foliar,3%
same,"Disease severity P. cubensis Oct. 27, 2020",[6]; 12 ppm foliar,1%
same,"percent control P. cubensis Oct. 20, 2020",[6]; [14],(95%)
same,"percent control P. cubensis Oct. 27, 2020",[6]; [14],99%
same,"Disease severity P. cubensis Jul. 28, 2020",[6]; 15 ppm foliar,28%
same,"percent control P. cubensis Jul. 28, 2020","[6]; 15 ppm foliar, vs carrier control",58%
same,"Disease severity P. cubensis Oct. 20, 2020",[6]; 25 ppm foliar,4%
same,"Disease severity P. cubensis Oct. 27, 2020",[6]; 25 ppm foliar,1%
same,"percent control P. cubensis Oct. 20, 2020",[6]; [15],(94%)
same,"percent control P. cubensis Oct. 27, 2020",[6]; [15],99%
same,"Disease severity P. cubensis Jul. 28, 2020",[6]; 30 ppm foliar,10%
same,"Disease severity P. cubensis Jul. 14, 2020","[6]; 30 ppm foliar, carrier control severity 98",73%
same,"percent control P. cubensis Jul. 14, 2020",[6]; [16],26%
same,"percent control P. cubensis Jul. 28, 2020",[6]; [16],85%
same,"Disease severity P. cubensis Oct. 20, 2020",[6]; 50 ppm foliar,7%
same,"Disease severity P. cubensis Oct. 27, 2020",[6]; 50 ppm foliar,2%
same,"percent control P. cubensis Oct. 20, 2020",[6]; [17],(89%)
same,"percent control P. cubensis Oct. 27, 2020",[6]; [17],98%
same,"Disease severity P. cubensis Jul. 28, 2020",[6]; 60 ppm foliar,18%
same,"percent control P. cubensis Jul. 28, 2020","[6]; 60 ppm foliar, vs carrier control",73%
same,control of Pseudoperonospora cubensis (summary of Table 3),[6]; foliar application,significant control
same,Disease severity B. cinerea,Botrytis cinerea [7]; 1 ppm foliar,58%
same,percent control B. cinerea,Botrytis cinerea [7]; 1 ppm foliar,(9%)
same,Disease severity B. cinerea,Botrytis cinerea [7]; 3 ppm foliar,45%
same,percent control B. cinerea,Botrytis cinerea [7]; 3 ppm foliar,(29%)
same,Disease severity B. cinerea,Botrytis cinerea [7]; 6 ppm foliar,45%
same,percent control B. cinerea,Botrytis cinerea [7]; 6 ppm foliar,(29%)
same,Disease severity B. cinerea,Botrytis cinerea [7]; 12 ppm foliar,30%
same,percent control B. cinerea,Botrytis cinerea [7]; 12 ppm foliar,(53%)
same,Disease severity B. cinerea,Botrytis cinerea [7]; 25 ppm foliar,24%
same,percent control B. cinerea,Botrytis cinerea [7]; 25 ppm foliar,(63%)
same,Disease severity B. cinerea,Botrytis cinerea [7]; 50 ppm foliar,9%
same,percent control B. cinerea,Botrytis cinerea [7]; 50 ppm foliar,(87%)
same,control of Botrytis cinerea (summary of Table 3),Botrytis cinerea [7]; foliar application,significant control

# Reference: patent US20240215582A1, “METHODS OF CONTROLLING PLANT PATHOGENS” (Valent BioSciences LLC, priority 2022, published 2024)
